Source: US20200095296A1, “USE OF PEPTIDES AS BIOMARKERS IN THE DIAGNOSIS, CONFIRMATION AND TREATMENT OF A NEUROLOGICAL DISORDER AND TCR AND/OR HLA IMMUNOPROFILING IN NEURODEGENERATIVE DISEASE” (THE TRUSTEES OF COLUMBIA UNIVERSITY IN THE CITY OF NEW YORK, priority 2017, published 2020)
Where no end group is shown, it is not given here. [ ]: non-standard residue; d: D form. pT = C[C@@H](OP(=O)(O)O)[C@H](N)C(=O)O; pS = N[C@@H](COP(=O)(O)O)C(=O)O

Tested on: PBMC
Assay: IFNg/IL-5 dual ELISPOT after 14 day in vitro stimulation of PBMC with Tau peptides
Type: cell-based, human
Settings: for PD % of Total Responders / PD Total SFC / PD Total Responders: PD donors; for % of total response / Average SFC per responder / Frequency of response / Total SFC per epitope: across all cohorts; for Total Responders / Total SFC: all three cohorts (PD, HC > 50, HC < 35); for HC < 35 Total Responders / HC < 35 Total SFC: healthy controls < 35 years old
Text: It was investigated whether T cell responses against Tau were detectable in the PD and healthy control (HC) donors. To this end, a panel of overlapping peptides spanning through the entire sequence of the Tau protein was synthesized. Since it is known that the Tau protein is post-translationally modified (mainly by phosphorylation), in several instances phosphorylated peptides were also synthesized. In all, 55 non-modified 16-mers overlapping by 8 and 14 modified 16-mers were synthesized.
PD: n=16, peptides tested 14-16 times; HC above 50 years old denominated as age-matched: n=11 (9-11 times) and HC below 35 years old (HC Young): n=13 (10-13 times).
These peptides were tested utilizing the following assay strategy. Briefly, PBMC from each donor were stimulated in vitro for 14 days as described (Hinz, D., 2015) with pools of 10 to 16 peptides each. After 14 days, the T cell cultures were assayed with IFNg/IL-5 dual ELISPOT assays […]. Positive pools were deconvoluted at day 17 to identify the specific individual epitopes recognized.

[1] = healthy controls > 50 years old

Sequence | PD/HC > 50 Ratio of % Responders | PD/HC > 50 Ratio of Response | HC > 50 % of Total Responders | HC > 50 Total SFC (HC > 50, dominant epitopes) | PD % of Total Responders | PD Total SFC (dominant epitopes) | % of total response | Average SFC per responder | Frequency of response | Total SFC per epitope | PD Total Responders | PD Total SFC | Total Responders | Total SFC | HC < 35 Total Responders | HC < 35 Total SFC | HC > 50 Total Responders [1] | HC > 50 Total SFC [1]
ADGKTKIATPRGAAPP (listed as Homo sapiens) [Tau 16-mer, start 145] | 1.0 | 0.5 | 50.0% | 3577 SFC | 50.0% | 1633 SFC | 1.5% | 868 SFC | 11.3 | 5210 SFC |  |  |  |  |  |  |  | 
ATLADEVSASLAKQGL (listed as Homo sapiens) [Tau 16-mer, start 426] | 1.5 | 0.8 | 40.0% | 2803 SFC | 60.0% | 2193 SFC | 1.4% | 999 SFC | 9.4 | 4997 SFC |  |  |  |  |  |  |  | 
DFKDRVQSKIGSLDNI (DFKDRVQSKIG[pS]LDNI; listed as Homo sapiens) [Tau 16-mer, start 345] | 0.7 | 0.6 | 60.0% | 4330 SFC | 40.0% | 2397 SFC | 1.9% | 1345 SFC | 9.4 | 6727 SFC | 2 | 2397 SFC | 5 | 6727 SFC | 0 | 0 SFC | 3 | 4330 SFC
DFKDRVQSKIGZLDNI | 2.0 | 3.7 | 28.6% | 1220 SFC | 57.1% | 4490 SFC | 1.9% | 972 SFC | 13.2 | 6807 SFC | 4 | 4490 SFC | 7 | 6807 SFC | 1 | 1097 SFC | 2 | 1220 SFC
DRSGYSSPGSPGTPGS (DRSGYSSPG[pS]PG[pT]PGS; listed as Homo sapiens) [Tau 16-mer, start 193] |  |  |  |  |  |  |  |  |  |  | 1 | 1175 SFC | 2 | 1332 SFC | 0 | 0 SFC | 1 | 157 SFC
DRSGYSSPGZPGXPGS | 5.0 | 7.3 | 11.1% | 187 SFC | 55.6% | 1360 SFC | 1.6% | 611 SFC | 17.0 | 5499 SFC | 5 | 1360 SFC | 9 | 5499 SFC | 3 | 3952 SFC | 1 | 187 SFC
GDTSPRHLSNVSSTGS (listed as Homo sapiens) [Tau 16-mer, start 401] | 0.3 | 0.6 | 50.0% | 1657 SFC | 16.7% | 997 SFC | 1.1% | 633 SFC | 11.3 | 3798 SFC |  |  |  |  |  |  |  | 
GKVQIINKKLDLSNVQ (listed as Homo sapiens) [Tau 16-mer, start 273] | 2.5 | 3.3 | 20.0% | 5560 SFC | 50.0% | 18290 SFC | 8.6% | 1511 SFC | 37.7 | 30211 SFC |  |  |  |  |  |  |  | 
GQKGQANATRIPAKTP (listed as Homo sapiens) [Tau 16-mer, start 161] | 4.0 | 3.5 | 16.7% | 1770 SFC | 66.7% | 6247 SFC | 2.3% | 1361 SFC | 11.3 | 8164 SFC |  |  |  |  |  |  |  | 
HVTQARMVSKSKDGTG (listed as Homo sapiens) | 5.0 | 66.9 | 10.0% | 133 SFC | 50.0% | 8916 SFC | 4.2% | 1468 SFC | 18.9 | 14677 SFC |  |  |  |  |  |  |  | 
IDMVDSPQLATLADEV (listed as Homo sapiens) [Tau 16-mer, start 417] |  |  |  |  |  |  |  |  |  |  | 1 | 173 SFC | 1 | 173 SFC | 0 | 0 SFC | 0 | 0 SFC
IDMVDZPQLATLADEV |  |  |  |  |  |  |  |  |  |  | 1 | 197 SFC | 5 | 1703 SFC | 2 | 563 SFC | 2 | 943 SFC
IKHVPGGGSVQIVYKP (listed as Homo sapiens) [Tau 16-mer, start 297] | 1.3 | 11.6 | 33.3% | 737 SFC | 44.4% | 8565 SFC | 3.4% | 1319 SFC | 17.0 | 11875 SFC |  |  |  |  |  |  |  | 
KIGSLDNITHVPGGGN (listed as Homo sapiens) [Tau 16-mer, start 353] | inf | inf | 0.0% | 0 SFC | 100.0% | 4070 SFC | 1.2% | 4070 SFC | 1.9 | 4070 SFC |  |  |  |  |  |  |  | 
KKIETHKLTFRENAKA (listed as Homo sapiens) [Tau 16-mer, start 369] | 1.4 | 1.4 | 31.3% | 5898 SFC | 43.8% | 8190 SFC | 5.4% | 1174 SFC | 30.2 | 18790 SFC |  |  |  |  |  |  |  | 
KTDHGAEIVYKSPVVS (listed as Homo sapiens) [Tau 16-mer, start 385] | 7.0 | 5.5 | 8.3% | 2437 SFC | 58.3% | 13336 SFC | 5.7% | 1679 SFC | 22.6 | 20142 SFC |  |  |  |  |  |  |  | 
KVAVVRTPPKSPSSAK (KVAVVR[pT]PPKSPSSAK; listed as Homo sapiens) | inf | inf | 0.0% | 0 SFC | 100.0% | 4556 SFC | 1.3% | 911 SFC | 9.4 | 4556 SFC | 5 | 4556 SFC | 5 | 4556 SFC | 0 | 0 SFC | 0 | 0 SFC
KVAVVRXPPKSPSSAK | 4.0 | 3.2 | 13.0% | 6987 SFC | 52.2% | 22410 SFC | 13.2% | 12014 SFC | 43.4 | 46324 SFC | 12 | 22410 SFC | 23 | 46324 SFC | 8 | 16927 SFC | 3 | 6987 SFC
